From the SangsterLogP compilation

Columns and labels:
[1] = method code SF, from DOI: 10.1021/bk-1995-0606.ch003
[2] = method code SF-GLC, from DOI: 10.1271/bbb1961.46.2755
[3] = not given; remark: listed apart in the source
[4] = method code SF-HPLC, from DOI: 10.1080/02772248909357333
[5] = method code SF-GLC, from DOI: 10.1021/ac00241a023
[6] = method code SF, from DOI: 10.1016/0005-2744(69)90103-x, PMID: 4387594
[7] = method code SF, from Korenman, I. M.; Klyukvina, T. D. (1972). Extraction of methylfurfural from aqueous solutions. Zh. Prikl. Khim., 45(11)2697-2699.
[8] = method code SF-GLC, from DOI: 10.1021/es00131a005
[9] = not given; remark: listed apart in the source
[10] = method code SF-AS, from DOI: 10.1016/0039-9140(93)80165-n, PMID: 18965747; conditions: pH 2.0
[11] = method code SF-TN, from DOI: 10.2116/analsci.13.897; conditions: pH 2.0
[12] = not given; remark: listed apart in the source
[13] = method code SF-HPLC, from DOI: 10.1016/s0021-9673(01)88640-4
[14] = method code SF, from DOI: 10.2307/3575246, PMID: 7367588
[15] = not given; remark: listed apart in the source
[16] = method code SF-AS, from Ganga, L. X. J. S., & Zun-Yaob, L. H. W. (2009). Determination of lgKow and QSPR Study on Some Fluorobenzene Derivatives. Jiegou Huaxue, 28(10).
[17] = method code SF-TN, from Korenman, I M.; Gurevich, N.; Kulagina, G. (1973). Extraction of certain n-alkylamines from aqueous solutions. Zh. Prikl. Khim., 46(3)726-728.
[18] = method code SF-CR+AS, from Korenman, I. (1982). The influence of substituents on the partition of phenols between water and organic solvents. Russ. J. Phys. Chem., 56(3)458-460.
[19] = not given; remark: listed apart in the source
[20] = method code SF-AS, from DOI: 10.1002/etc.5620181211
[21] = method code SF, from Ganellin, C. R., & Durant, G. J. (1981). Histamine H2-receptor agonists and antagonists. Burgers Medicinal Chemistry, 3, 487-552.; conditions: pH 11.8
[22] = method code SF, from DOI: 10.1016/j.jiec.2010.03.003
[23] = not given; remark: listed apart in the source
[24] = method code SF-HPLC, from DOI: 10.1021/je049947x
[25] = not given; remark: listed apart in the source
[26] = method code SF-AS, from DOI: 10.1016/s0045-6535(00)00181-8, PMID: 11272912
[27] = not given; remark: listed apart in the source
[28] = not given; remark: listed apart in the source
[29] = method code SF-AS, from DOI: 10.1016/0223-5234(93)90135-2; conditions: pH 12.0
[30] = method code SF-GLC, from DOI: 10.1002/etc.5620080910
[31] = method code SF, from DOI: 10.1016/j.tca.2016.07.020; conditions: pH 7.4
[32] = method code SF-AS, from DOI: 10.1016/0003-9861(82)90097-2, PMID: 6284047; conditions: pH 7.4
[33] = method code SF-AS, from DOI: 10.1016/0378-5173(93)90388-v
[34] = not given; remark: listed apart in the source
[35] = method code SF-AS, from DOI: 10.1016/0891-5849(94)00112-w, PMID: 7744299; conditions: pH 7.5
[36] = method code SF-HPLC, from DOI: 10.1016/0378-5173(83)90028-5
[37] = method code SF-AS, from PMID: 2551304; conditions: pH 7.4
[38] = method code SF-RC, from DOI: 10.1002/jps.2600800111, PMID: 2013848
[39] = method code SF-AS, from PMID: 2160644
[40] = not given; remark: listed apart in the source
[41] = not given; remark: listed apart in the source
[42] = method code SF-TN, from DOI: 10.1085/jgp.71.1.93, PMID: 621494
[43] = not given; remark: listed apart in the source
[44] = method code SF-GLC, from Boikov, Yu.; Shibaev, V.; Gaidamaka, V.; V'yunov, K. (1989). Study of correlation between extraction characteristics of glycidyl ethers and theri structure. 62(1)177-179.
[45] = method code SF-AS, from DOI: 10.1016/0378-5173(80)90061-7
[46] = method code SF-AS, from DOI: 10.1016/0006-2952(74)90620-0, PMID: 4822742; conditions: pH 7.4
[47] = not given; remark: listed apart in the source
[48] = from KURIHARA, Norio.; Fujita, Toshio. (1983). Composition of Partition Coefficients of Polychlorinated Hydrocarbons (Commemoration Issue Dedicated to Professor Yuzo Inouye on the Occasion of his …
[49] = method code SF, from Brown, J.; Yu, N.; Cory, M.; Bicknell, R.; Taylor, D. (1978). In vivo evaluation of the radiosensitizing and cytotoxic properties of newly synthesized electron-affinic drugs. 3, 206-211.
[50] = method code SF-AS, from Kosanovic, D.; Dumanovic, D.; Jovanovic, J. (1988). Solubility in octanol And the octanol-water partition coefficients of some 4(5)- and 5-nitroimidazoles. 53(10)559-563.
[51] = method code SF-RC, from DOI: 10.1016/s0969-8051(01)00233-5, PMID: 11518650
[52] = method code SF-GLC, from DOI: 10.1002/jps.2600620103, PMID: 4734195
[53] = method code SF-AS, from DOI: 10.1021/jm0495273.s001, PMID: 15974600; conditions: pH 7.4

Question: With `CCc1ccc[nH]1` as the compound, how does the logP [1] read?
Answer: 1.59

Question: With `CCCS(=O)(=O)CCC` as the compound, how does the logP [2] read?
Answer: 0.39

Question: Which logP does the source give for `Clc1cccc(C(Cl)(Cl)Cl)n1` here?
Answer: 3.41

Question: For `Oc1c(Br)c(Br)c(Br)c(Br)c1Br`, which logP [3] is on record?
Answer: 5.3

Question: With `COc1nn(CSP(=S)(OC)OC)c(=O)s1` as the compound, how does the logP [4] read?
Answer: 2.22

Question: For `Clc1cccc(Cl)c1Cl`, which logP [5] is on record?
Answer: 4.05

Question: For `Nc1ccccc1F`, which logP [6] is on record?
Answer: 1.26

Question: With `Cc1ccc(C=O)o1` as the compound, how does the logP [7] read?
Answer: 0.67

Question: Which logP [8] does the source give for `Clc1ccc(Cl)c(Cl)c1Cl` here?
Answer: 4.6

Question: Which logP [9] does the source give for `COC(=O)c1ccco1` here?
Answer: 1.08

Question: For `CC(C)(C)C(=O)O`, which logD [10] is on record?
Answer: 1.42

Question: With `O=C(O)C1CCCC1` as the compound, how does the logD [11] read?
Answer: 1.52

Question: For `Oc1ccc(O)cc1`, which logP [12] is on record?
Answer: 0.61

Question: Which logP [13] does the source give for `N#CN=[N+]([O-])c1cnccn1` here?
Answer: 0.1

Question: With `Cn1c(C(O)CO)cnc1[N+](=O)[O-]` (centres undefined) as the compound, how does the logP [14] read?
Answer: -0.89

Question: Which logP [15] does the source give for `O=[N+]([O-])c1cc(Cl)ccc1Cl` here?
Answer: 3.09

Question: For `Fc1ccc(F)cc1`, which logP [16] is on record?
Answer: 2.26

Question: With `CCCCN` as the compound, how does the logP [17] read?
Answer: 0.74

Question: With `Nc1cc([N+](=O)[O-])cc(Cl)c1O` as the compound, how does the logP [18] read?
Answer: 1.53

Question: Which logP [19] does the source give for `Nc1cc(Cl)c(S(N)(=O)=O)cc1S(N)(=O)=O` here?
Answer: -0.56

Question: For `Cc1cccnc1N`, which logP [20] is on record?
Answer: 0.01

Question: Which logD [21] does the source give for `NCCc1c[nH]cn1` here?
Answer: -0.7

Question: With `COC(C)(C)C` as the compound, how does the logP [22] read?
Answer: 1.41

Question: Which logP [23] does the source give for `CNC(=O)N(C)c1nnc(C(F)(F)F)s1` here?
Answer: 1.46

Question: For `CC(C)Nc1nc(N)nc(Cl)n1`, which logP [24] is on record?
Answer: 1.49

Question: Which logP [25] does the source give for `CC(CCl)OC(C)CCl` (centres undefined) here?
Answer: 2.48

Question: With `O=Cc1cc(Br)ccc1O` as the compound, how does the logP [26] read?
Answer: 2.5

Question: With `Nc1cccc(O)c1` as the compound, how does the logP [27] read?
Answer: 0.28

Question: Which logP [28] does the source give for `CON=C(C#N)C(=O)NCC(=O)O` here?
Answer: -0.58

Question: With `NCCc1nccs1` as the compound, how does the logD [29] read?
Answer: 0.16

Question: Which logP [30] does the source give for `O=[N+]([O-])c1ccc(Cl)cc1Cl` here?
Answer: 3.05

Question: For `NC(=S)c1ccncc1`, which logD [31] is on record?
Answer: 0.61

Question: With `CC1(C)CCC=[N+]1[O-]` as the compound, how does the logD [32] read?
Answer: -1.03

Question: With `CC1CCC(=O)N1` (centres undefined) as the compound, how does the logP [33] read?
Answer: -0.1

Question: Which logP [34] does the source give for `S=C=Nc1ccc(Br)cc1` here?
Answer: 4.03

Question: For `O=Nc1ccccc1`, which logD [35] is on record?
Answer: 1.86

Question: Which logP [36] does the source give for `O=[N+]([O-])O[C@@H]1CO[C@H]2[C@@H]1OC[C@@H]2O` here?
Answer: -0.15

Question: For `Nc1ccncc1F`, which logD [37] is on record?
Answer: 0.63

Question: Which logP [38] does the source give for `Nc1ccc(S(=O)(=O)O)cc1` here?
Answer: -2.16

Question: Which logP [39] does the source give for `O=C(O)c1cc(=O)[nH]c(=O)[nH]1` here?
Answer: -0.83

Question: With `Cc1nccn1C` as the compound, how does the logP [40] read?
Answer: -0.04

Question: Which logP [41] does the source give for `Nc1cc(N=O)ccc1O` here?
Answer: 0.03

Question: Which logP [42] does the source give for `CCCCC(O)C(=O)O` (centres undefined) here?
Answer: 0.81

Question: With `Oc1ccc(O)c(Cl)c1` as the compound, how does the logP [43] read?
Answer: 1.4

Question: Which logP [44] does the source give for `CCOCC1CO1` (centres undefined) here?
Answer: 0.27

Question: With `CCOC(=O)CCCO` as the compound, how does the logP [45] read?
Answer: 0.43

Question: For `CC1=NS(=O)(=O)c2cc(Cl)ccc2N1`, which logD [46] is on record?
Answer: 1.08

Question: For `COCC(C)OC(C)=O` (centres undefined), which logP [47] is on record?
Answer: 0.56

Question: With `ClC1C=CCC(Cl)C1Cl` (centres undefined) as the compound, how does the logP [48] read?
Answer: 2.84

Question: For `CC(O)Cn1ccnc1[N+](=O)[O-]` (centres undefined), which logP [49] is on record?
Answer: -0.16

Question: For `CC(C)c1nc([N+](=O)[O-])c[nH]1`, which logP [50] is on record?
Answer: 0.9

Question: For `CN(C)CCCF`, which logP [51] is on record?
Answer: 1.27

Question: Which logP [52] does the source give for `CC(C)C(C)O` (centres undefined) here?
Answer: 1.28

Question: For `Nc1nc(S)c2[nH]cnc2n1`, which logD [53] is on record?
Answer: -0.16
